Reference: PubChem BioAssay (NCI)
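1) Cells in 96-well plates. 2) Compound, 48 h, 5 concentrations. 3) Linear interpolation between surrounding doses. 4) Unreached endpoint = highest concentration. TGI: concentration producing complete growth inhibition.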

Columns and labels:
Assay in all cases: DTP human tumour cell line panel, 48 h
[1] = system: OVCAR-8 ovarian
[2] = system: SK-MEL-5 melanoma
[3] = system: ACHN renal
[4] = system: OVCAR-5 ovarian
[5] = system: SW-620 colon
[6] = system: CAKI-1 renal
[7] = system: DU-145 prostate
[8] = system: PC-3 prostate
[9] = system: SF-295 CNS
[10] = system: RPMI-8226 leukemia
[11] = system: EKVX NSCLC
[12] = system: NCI-H226 lung
[13] = system: RXF 393 renal
[14] = system: SK-MEL-2 melanoma

SMILES | TGI [1] [µM] | TGI [2] [µM] | TGI [3] [µM] | TGI [4] [µM] | TGI [5] [µM] | TGI [6] [µM] | TGI [7] [µM] | TGI [8] [µM] | TGI [9] [µM] | TGI [10] [µM] | TGI [11] [µM] | TGI [12] [µM] | TGI [13] [µM] | TGI [14] [µM]
Cc1ccc(/C(O)=C/c2nc3ccccc3nc2NC23CC4CC(CC(C4)C2)C3)cc1 | > 10 | > 10 | > 10 | > 10 | > 10 | > 10 | > 10 | > 10 | > 10 | > 10 |  |  |  | 
Nc1ccc2c(c1)N(C(=O)CCCC(=O)N1CC(CCl)c3ccc(N)cc31)CC2CCl (stereo not drawn) | > 11.2 | 0.689 | > 41 | > 41.3 | > 50 |  | > 21 | 16.4 | > 50 | > 10.2 | 7.8 | > 50 | 0.582 | 1.43
CN(OC(=O)CC(=O)c1ccccc1)C(=O)Cc1ccccc1 | > 100 | > 100 | > 100 | > 100 | > 100 | > 100 |  |  | > 100 | > 100 | > 100 | > 100 |  | > 100
C=C[C@@]1(C)CC(=O)[C@]2(O)[C@@]3(C)[C@@H](OC(C)=O)CCC(C)(C)[C@@H]3[C@H](O)[C@H](OC(C)=O)[C@@]2(C)O1 | > 100 |  | > 100 | > 100 | > 100 | > 100 | > 100 | > 100 | > 100 |  | > 100 | > 100 |  | > 100
CCCC[P+](CCCC)(CCCC)C(C(=O)OC)C(C(=O)OC)=C1SC(C(=O)OC)=C(C(=O)OC)S1 (stereo not drawn) | > 100 | > 100 | > 100 | > 100 | > 100 |  | > 100 | > 100 | > 100 | > 100 | > 100 | > 100 | > 100 | > 100
N#Cc1cccc(Nc2ccccc2SSc2ccccc2Nc2cccc(C#N)c2)c1 | > 21.5 | 17 | > 21.5 | > 21.5 | 9.19 |  | > 21.5 | 13.9 | > 21.5 | 11.5 | > 21.5 | 18.3 |  | 
CC(C)OP(=O)(OC(C)C)c1nn(-c2ccc([N+](=O)[O-])cc2)c(=N)s1 | > 100 | > 100 | > 100 | > 100 | > 100 | > 100 |  |  | > 100 | > 100 | > 100 |  |  | 
COC(=O)CC[N+]1([O-])CC1 | > 100 | > 100 | > 100 | > 100 | > 100 |  | > 100 |  | > 100 | > 100 | > 100 | > 100 | > 100 | 
COc1ccc(OC)c2sc(N3C(=O)/C(=C/c4ccc(N(C)C)cc4)N=C3c3ccccc3)nc12 | > 100 | > 100 | > 100 | > 100 | > 100 | > 100 | > 100 | 81.2 | > 100 | > 100 | > 100 |  |  | > 100
Cc1c2[nH]c3ccc(Br)cc3c2c(C)c2[nH]ccc(=O)c12 | 76.9 | 64.2 | 22.5 | 30 | 25.5 | 28 |  |  | 28.7 | 41.5 | 33.5 | 35.9 |  | 33.8
CC(C)(C)c1cc(C(C)(C)C)c(P=C(Cl)Cl)c(C(C)(C)C)c1 (stereo not drawn) | > 100 | > 100 | > 100 | > 100 | > 100 | > 100 | > 100 | > 100 | > 100 | > 100 | > 100 | > 100 |  | > 100
CCOC(=O)CCN1C(=O)c2ccc(NC(=O)C(=O)O)cc2S1(=O)=O | > 100 | > 100 | > 100 | > 100 | > 100 | > 100 | > 100 | > 100 | > 100 | > 100 | > 100 | > 100 |  | > 100
O=[N+]([O-])/C(C(Cl)=C(Cl)Cl)=C(\Nc1cccc2cccnc12)Sc1ccccc1 |  |  | 71.1 | > 100 | 31.9 | 46.7 | 78.4 | 80.5 | 51.4 | > 100 | > 100 | 86.6 |  | 82.5
CC[N+](C)(C)c1ccc(C(=C2C=CC(=[N+](C)C)C=C2)c2ccc(N(C)C)cc2)cc1 | 64.9 | 26.9 | 62.1 | > 100 | 52.1 | > 100 |  |  | 70.1 | 7.36 | > 100 | 52.8 | > 100 | 56.8
CCOC(=O)/C(=C\NC[C@@H](C)O)c1nc2ccccc2[nH]1 | > 100 | > 100 | 90.4 | > 100 | > 100 | > 100 | > 100 |  | > 100 | 63.3 | > 100 |  | > 100 | 
CCCCn1c(C)c(C)c2c1NN=C(C#N)S2(=O)=O | > 100 | > 100 | > 100 | > 100 | > 100 |  | > 100 | > 100 |  | > 100 | > 100 |  |  | > 100
COC1C(=[N+]=[N-])C(=O)NC(=O)N1C1OC(COC(c2ccccc2)(c2ccccc2)c2ccccc2)C(O)C1O (stereo not drawn) | 36.9 | 30 | 38.3 | 31.7 | 35.8 | 56.1 |  |  | 37.4 | 61.8 | 35.9 | 32.1 |  | 38.4
CC12CC(=O)OC(Cc3ccccc31)O2 (stereo not drawn) | > 100 |  | > 100 |  | > 100 |  |  |  | > 100 | > 100 | > 100 | > 100 | > 100 | > 100
CCCOP1(=O)C=C(C)C(Cl)=C(C)C1 (stereo not drawn) | > 100 | 55.3 | 52.5 | 77.4 | 35.5 |  |  |  | > 100 | 35.5 | > 100 | 52.2 | 57 | 32.2
